Target: T1, human CB2R (Homo sapiens, UniProt P34972)
T1 construct: host or cells: CHO cells
Test: CB2R mediated modulation of cAMP synthesis
Type: cell-based
Conditions: CHO cells expressing human CB2R; decrease of forskolin induced cAMP; found 'through the use of the above described assays'
Protocol: B. CB2R Mediated Modulation of cAMP Synthesis:
CHO cells expressing human CB2R (Euroscreen) were plated at a density of 5000 cells per well in 384 well plates and incubated overnight at 37° C. After removing the media, the cells were treated with test compounds diluted in stimulation buffer containing 1 mM IBMX, 0.25% BSA and 10 uM Forskolin. The assay was incubated for 30 minutes at 37° C. Cells were lysed and the cAMP concentration was measured using DiscoverX-XS cAMP kit, following the manufacturer's protocol. In this setting, agonists will decrease forskolin induced production of cAMP while inverse agonists will further increase forskolin induced production of cAMP. EC50 of agonists were calculated as follows. The maximal amount of cAMP produced by forskolin compared to the level of cAMP inhibited by 1 uM CP55940 is defined as 100%. The EC50 value of each test compound was determined as the concentration at which 50% of the forskolin-stimulated cAMP synthesis was inhibited. Data was analyzed using a four-parameter logistic model. (Model 205 of XLfit 4.0).

T1 sequence (P34972 whole entry): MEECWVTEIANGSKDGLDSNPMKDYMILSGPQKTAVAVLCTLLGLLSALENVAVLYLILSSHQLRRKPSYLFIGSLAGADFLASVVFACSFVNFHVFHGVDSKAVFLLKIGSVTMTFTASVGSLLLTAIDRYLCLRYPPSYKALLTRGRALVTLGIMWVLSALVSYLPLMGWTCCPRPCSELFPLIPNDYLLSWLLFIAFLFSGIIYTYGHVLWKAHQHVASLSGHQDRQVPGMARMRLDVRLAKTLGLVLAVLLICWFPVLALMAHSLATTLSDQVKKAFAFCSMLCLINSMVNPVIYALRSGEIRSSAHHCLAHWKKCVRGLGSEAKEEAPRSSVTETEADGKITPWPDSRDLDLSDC

Row | agonistic activity | Compound
1 | agonistic activity | FC(F)(F)c1ccccc1-c1ccc(CN2CCOCC2)cc1 [4-(2′-Trifluoromethyl-biphenyl-4-ylmethyl)-morpholine]
2 | agonistic activity | Clc1sccc1-c1ccc(CN2CCOC(c3ccccc3)C2)cc1 (centres unmarked) [4-[4-(2-Chloro-thiophen-3-yl)-benzyl]-2-phenyl-morpholine]
3 | agonistic activity | N#Cc1ccccc1-c1ccc(CN2CCOC(c3ccccc3)C2)cc1 (centres unmarked) [4′-(2-Phenyl-morpholin-4-ylmethyl)-biphenyl-2-carbonitrile]
4 | agonistic activity | FC(F)(F)c1ccccc1-c1ccc(CN2CCO[C@@H](c3ccccc3)C2)cn1 [(S)-2-Phenyl-4-[6-(2-trifluoromethyl-phenyl)-pyridin-3-ylmethyl]-morpholine]
5 | agonistic activity | Clc1cccc(-c2ccc(CN3CCO[C@@H](c4ccccc4)C3)cc2)c1Cl [Example 183, (S)-4-(2′,3′-Dichloro-biphenyl-4-ylmethyl)-2-phenyl-morpholine]
6 | agonistic activity | c1ccc(C[C@H]2CN(Cc3ccc(-c4ccccc4)nc3)CCN2)cc1 [Example 186, (S)-3-Benzyl-1-(6-phenyl-pyridin-3-ylmethyl)-piperazine]
7 | agonistic activity | c1ccc(-c2ccc(CN3CCO[C@@H](c4ccccc4)C3)cn2)cc1 [Example 188, (S)-2-Phenyl-4-(6-phenyl-pyridin-3-ylmethyl)-morpholine]
8 | agonistic activity | Clc1cccc(-c2ccc(CN3CCO[C@@H](c4ccccc4)C3)cn2)c1 [Example 189, (S)-4-[6-(3-Chloro-phenyl)-pyridin-3-ylmethyl]-2-phenyl-morpholine]
9 | agonistic activity | Clc1sccc1-c1ccc(CN2CCO[C@@H](c3ccccc3)C2)cc1 [Example 191, (S)-4-[4-(2-Chloro-thiophen-3-yl)-benzyl]-2-phenyl-morpholine]
10 | agonistic activity | N#Cc1ccccc1-c1ccc(CN2CCO[C@@H](c3ccccc3)C2)cc1 [Example 192, 4′-((S)-2-Phenyl-morpholin-4-ylmethyl)-biphenyl-2-carbonitrile]
11 | agonistic activity | Clc1ccccc1-c1ccc(CN2CCO[C@@H](c3ccccc3)C2)cc1 [Example 193, (S)-4-(2′-Chloro-biphenyl-4-ylmethyl)-2-phenyl-morpholine]
12 | agonistic activity | O=C(c1ccccc1)N1CCN(Cc2ccc(-c3ccccc3C(F)(F)F)cc2)CC1Cc1ccccc1 (centres unmarked) [Phenyl-[2-benzyl-4-(2′-trifluoromethyl-biphenyl-4-ylmethyl)-piperazin-1-yl]-methanone]

The remaining lines, values behind:

Row | Compound | agonistic activity
13 | Clc1ccccc1-c1ccc(CN2CCCC(c3ccccc3)C2)cc1 (centres unmarked) [1-(2′-Chloro-biphenyl-4-ylmethyl)-3-phenyl-piperidine] | agonistic activity
14 | O=S(=O)(c1ccccc1)N1CCN(Cc2ccc(-c3ccccc3C(F)(F)F)cc2)CC1c1ccccc1 (centres unmarked) [1-Benzenesulfonyl-2-phenyl-4-(2′-trifluoromethyl-biphenyl-4-ylmethyl)-piperazine] | agonistic activity
15 | FC(F)(F)c1ccccc1-c1ccc(CN2CCOC(c3ccccc3)C2)cc1 (centres unmarked) [2-Phenyl-4-(2′-trifluoromethyl-biphenyl-4-ylmethyl)-morpholine] | agonistic activity
16 | c1ccc(C2CN(Cc3ccc(-c4ccccn4)cc3)CCO2)cc1 (centres unmarked) [2-Phenyl-4-(4-pyridin-2-yl-benzyl)-morpholine] | agonistic activity
17 | c1ccc(C2CN(Cc3ccc(-c4ccsc4)cc3)CCO2)cc1 (centres unmarked) [2-Phenyl-4-(4-thiophen-3-yl-benzyl)-morpholine] | agonistic activity
18 | FC(F)(F)c1ccccc1-c1ccc(CN2CCNC(Cc3ccccc3)C2)cc1 (centres unmarked) [3-Benzyl-1-(2′-trifluoromethyl-biphenyl-4-ylmethyl)-piperazine] | agonistic activity
19 | FC(F)(F)c1ccccc1-c1ccc(CN2CCCC(c3ccccc3)C2)cc1 (centres unmarked) [3-Phenyl-1-(2′-trifluoromethyl-biphenyl-4-ylmethyl)-piperidine] | agonistic activity
20 | Clc1cccc(-c2ccc(CN3CCOC(c4ccccc4)C3)cc2)c1Cl (centres unmarked) [4-(2′,3′-Dichloro-biphenyl-4-ylmethyl)-2-phenyl-morpholine] | agonistic activity
21 | Cc1ccc(Cl)c(-c2ccc(CN3CCOC(c4ccccc4)C3)cc2)c1 (centres unmarked) [4-(2′-Chloro-5′-methyl-biphenyl-4-ylmethyl)-2-phenyl-morpholine] | agonistic activity
22 | Clc1ccccc1-c1ccc(CN2CCOC(c3ccccc3)C2)cc1 (centres unmarked) [4-(2′-Chloro-biphenyl-4-ylmethyl)-2-phenyl-morpholine] | agonistic activity
23 | CCOc1ccccc1-c1ccc(CN2CCOC(c3ccccc3)C2)cc1 (centres unmarked) [4-(2′-Ethoxy-biphenyl-4-ylmethyl)-2-phenyl-morpholine] | agonistic activity

From patent US7595397B2, “Compounds which modulate the CB2 receptor” (Boehringer Ingelheim International GmbH, priority 2005, dated 2009)
